This is an account of results in PMC8964029 (Pharmaceutical Research, 2022).

For data set [1] the following is noted: healthy volunteers, co-administration of ketoconazole; cited from earlier work.
The format of data set [2] is in vivo, human. The following applies: for Cmin (trough concentration) / Cmax / AUC0-24h: steady state, geometric mean (CV%); for AUC0-24h, ratio of geometric mean (95% CI) / Cmax, ratio of geometric mean (95% CI) / Cmin, ratio of geometric mean (95% CI): erlotinib 75 mg QD + ritonavir 200 mg QD versus erlotinib monotherapy 150 mg QD.
A short description of data set [3]: Treatment-related adverse events graded according to CTCAE version 5.0. The class given is in vivo, human. The note with it: nine patients.
For data set [4] the following is noted: cited from earlier work.
The next data set deals with CYP3A4. The note with it: remaining part by CYP1A2; cited from earlier work.
[5] abbreviates: plasma, erlotinib 75 mg QD + ritonavir 200 mg QD.
The mark [6] stands for this setting: plasma, erlotinib monotherapy 150 mg QD.
Setting [7] is: erlotinib 75 mg QD + ritonavir 200 mg QD.
Setting [8] is: erlotinib monotherapy 150 mg QD.
Where [9] appears, read: versus erlotinib monotherapy, result in words.

Read-outs that look alike come from different tables or passages of the source.

For the molecule `C#Cc1cccc(Nc2ncnc3cc(OCCOC)c(OCCOC)cc23)c1` [Erlotinib, erlotinib], in data set [1], the “Increase of AUC0-∞ of erlotinib by ketoconazole” value is “approximately a twofold” and the “Increase of Cmax of erlotinib by ketoconazole” value is recorded as “approximately a twofold”. The molecule also gave an AUC(0-t) in data set [2] (human, plasma, oral, 150 mg) of 29300 ng·h/mL. Besides, in data set [2] (setting [5]), the “Cmin (trough concentration)” value was 1.06 (165%) μg/mL. In addition, the “Cmin (trough concentration)” value in data set [2] (plasma, erlotinib 75 mg QD + ritonavir 200 mg QD, listed as erlotinib) came out at 1.06 µg/mL. In data set [2] (setting [6]), the Cmax is recorded as 1.84 (60%) μg/mL and the “Cmin (trough concentration)” value is on record as 1.00 (62%) μg/mL. For the same molecule, the “Patients experiencing treatment-related adverse events” value in data set [3] (combination of erlotinib with ritonavir) stood at 56%. Besides, in data set [3] (setting [7]), the “Diarrhea grade 1 or 2, number of patients” value is 2; the “Diarrhea ≥ grade 3, number of patients” value was determined as 0; the “Nausea grade 1 or 2, number of patients” value is reported as 2; the “Nausea ≥ grade 3, number of patients” value is 0. In data set [3] (setting [7]), the “Number of patients experiencing any AE” value stood at 5; the “Skin rash grade 1 or 2, number of patients” value came to 1; the “Skin rash ≥ grade 3, number of patients” value was 0. Further, in data set [3] (setting [8]), the “Diarrhea grade 1 or 2, number of patients” value amounted to 2; the “Diarrhea ≥ grade 3, number of patients” value came out at 0; the “Nausea grade 1 or 2, number of patients” value came to 0; the “Nausea ≥ grade 3, number of patients” value came to 0. Also, in data set [3] (setting [8]), the “Number of patients experiencing any AE” value stood at 4; the “Skin rash grade 1 or 2, number of patients” value turned out to be 3; the “Skin rash ≥ grade 3, number of patients” value is on record as 0. The “Patients with a treatment-related adverse event” value in data set [3] (monotherapy erlotinib) came out at 44%. Also, the elimination half-life result in data set [4] is reported as “approximately 36 h”. The “Share of erlotinib metabolized by CYP3A4” value in the data set with CYP3A4 is given as “approximately 70%”.

For `CC(C)c1nc(CN(C)C(=O)N[C@H](C(=O)N[C@@H](Cc2ccccc2)C[C@H](O)[C@H](Cc2ccccc2)NC(=O)OCc2cncs2)C(C)C)cs1` [Ritonavir, ritonavir], in data set [2] (setting [5]), the “Cmin (trough concentration)” value was 0.243 (129%) μg/mL.

For OSI-420, in data set [2], the “AUC0-24h, ratio of geometric mean (95% CI)” value is 0.31 (0.15 – 0.62); the “Cmax, ratio of geometric mean (95% CI)” value is recorded as 0.28 (0.13 – 0.57); the “Cmin, ratio of geometric mean (95% CI)” value is 0.41 (0.22 – 0.76). Moreover, in data set [2] (setting [5]), the AUC0-24h is listed as 118 (351%) ng*h/mL, the Cmax is recorded as 7.24 (230%) ng/mL and the “Cmin (trough concentration)” value is given as 4.34 (443%) ng/mL. In data set [2] (setting [6]), the AUC0-24h was 380 (144%) ng*h/mL, the Cmax was 26.1 (141%) ng/mL and the “Cmin (trough concentration)” value is 10.5 (162%) ng/mL. For the same molecule, in data set [2] (setting [9]), the “Change in AUC0-24h following the combination of erlotinib and ritonavir” value is “statistically significant decrease”; the “Change in Cmax following the combination of erlotinib and ritonavir” value is on record as “statistically significant decrease”; the “Change in Cmin following the combination of erlotinib and ritonavir” value was “statistically significant decrease”.

On to `C#Cc1cccc(Nc2ncnc3cc(OCCO)c(OCCOC)cc23)c1` [OSI-413], for which, in data set [2], the “AUC0-24h, ratio of geometric mean (95% CI)” value is 0.53 (0.34 – 0.83); the “Cmax, ratio of geometric mean (95% CI)” value was 0.48 (0.31 – 0.76); the “Cmin, ratio of geometric mean (95% CI)” value is 0.59 (0.37 – 0.94). Further, in data set [2] (setting [5]), the Cmax is given as 43.7 (134%) ng/mL and the “Cmin (trough concentration)” value is listed as 29.4 (263%) ng/mL. In data set [2] (plasma, erlotinib 75 mg QD + ritonavir 200 mg QD, nine patients), the AUC0-24h was 0.823 (174%) μg*h/mL. In data set [2] (setting [6]), the Cmax is given as 90.0 (107%) ng/mL and the “Cmin (trough concentration)” value is on record as 49.5 (152%) ng/mL. Further, the AUC0-24h in data set [2] (plasma, erlotinib monotherapy 150 mg QD, nine patients) is 1.55 (120%) μg*h/mL. In data set [2] (setting [9]), the “Change in AUC0-24h following the combination of erlotinib and ritonavir” value was “statistically significant decrease”; the “Change in Cmax following the combination of erlotinib and ritonavir” value is “statistically significant decrease”.
